From PubChem BioAssay AID330 (DTP/NCI, 2004)
Several values for one entry are separate records, joined by “and”; a condition that tells them apart may be missing. Equal entries are not always repeated. Inconclusive results and toxic doses are left out.

System: P388 leukemia ip, CD2F1 mice, survival T/C
Experiment: NCI In Vivo Anticancer Drug Screen. Data for tumor model P388 Leukemia (intraperitoneal) in CD2F1 (CDF1) mice
Conditions: endpoint: median survival time, higher = longer survival
How it was run: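 Mice carrying the transplanted tumor received test compound or vehicle. Survival was recorded in each group, and the value is the treated-group measurement divided by that of the vehicle-treated control group.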

[1] = dose: 50.0 mg/kg/injection, schedule: Q01DX005 (ip), vehicle: saline with Tween-80
[2] = dose: 100.0 mg/kg/injection, schedule: Q01DX005 (ip), vehicle: saline with Tween-80
[3] = dose: 50.0 mg/kg/injection, schedule: Q01DX009 (ip), vehicle: Klucel (hydroxypropylcellulose) (HPC)
[4] = dose: 100.0 mg/kg/injection, schedule: Q01DX009 (ip), vehicle: Klucel (hydroxypropylcellulose) (HPC)
[5] = dose: 60.0 mg/kg/injection, schedule: Q01DX005 (ip), vehicle: saline with Tween-80

For `CCCCCCOC(=O)c1ccc(I)cc1`, the T/C (dose: 50.0 mg/kg/injection, schedule: Q01DX009 (ip), vehicle: saline with Tween-80) was 97 % of control, the T/C (dose: 100.0 mg/kg/injection, schedule: Q01DX009 (ip), vehicle: saline with Tween-80) was 93 % of control and the T/C (dose: 200.0 mg/kg/injection, schedule: Q01DX009 (ip), vehicle: saline with Tween-80) was 100 % of control.
For `Cc1cc(=O)[nH]c2c(C)c(N)ccc12`, the T/C (dose: 25.0 mg/kg/injection, schedule: Q01DX005 (ip), vehicle: saline with Tween-80) was 95 % of control, the T/C [1] was 104 % of control and the T/C [2] was 95 % of control.
`COCC(=O)c1ccc([N+](=O)[O-])cc1` was tested, and the T/C (dose: 50.0 mg/kg/injection, schedule: Q01DX009 (ip), vehicle: saline) was 98 % of control, the T/C (dose: 100.0 mg/kg/injection, schedule: Q01DX009 (ip), vehicle: saline) was 103 % of control and 104 % of control and the T/C (dose: 200.0 mg/kg/injection, schedule: Q01DX009 (ip), vehicle: saline) was 105 % of control and 111 % of control.
In the case of `O=C(CCN1CCOCC1)Nc1ccc(F)cc1F`, the T/C [1] is reported as 99 % of control, the T/C [2] is reported as 94 % of control and the T/C (dose: 200.0 mg/kg/injection, schedule: Q01DX005 (ip), vehicle: saline with Tween-80) is reported as 94 % of control.
In the case of `N#Cc1[nH]nc2[nH]c(=S)[nH]c(=S)c12`, the T/C (dose: 100.0 mg/kg/injection, schedule: Q04DX002 (ip), vehicle: water) is reported as 113 % of control, the T/C (dose: 200.0 mg/kg/injection, schedule: Q04DX002 (ip), vehicle: water) is reported as 110 % of control and the T/C (dose: 400.0 mg/kg/injection, schedule: Q04DX002 (ip), vehicle: water) is reported as 102 % of control.
`CN(C)N=Nc1cccc(C(N)=O)c1` was tested, and the T/C (dose: 6.25 mg/kg/injection, schedule: Q01DX009 (ip), vehicle: Klucel (hydroxypropylcellulose) (HPC)) was 100 % of control, the T/C (dose: 12.5 mg/kg/injection, schedule: Q01DX009 (ip), vehicle: Klucel (hydroxypropylcellulose) (HPC)) was 110 % of control and the T/C (dose: 25.0 mg/kg/injection, schedule: Q01DX009 (ip), vehicle: Klucel (hydroxypropylcellulose) (HPC)) was 116 % of control. For the same compound, the T/C [3] was 112 % of control and the T/C [4] was 93 % of control.
With `O=C1Nc2ccc(Cl)cc2C1=O` the T/C [3] was 99 % of control and 98 % of control, the T/C [4] was 105 % of control and the T/C (dose: 200.0 mg/kg/injection, schedule: Q01DX009 (ip), vehicle: Klucel (hydroxypropylcellulose) (HPC)) was 118 % of control and 89 % of control.
`CCCCCCCCCCC(O)CCCCCCCCCC` was tested, and the T/C (dose: 100.0 mg/kg/injection, schedule: Q04DX003 (ip), vehicle: saline with Tween-80) was 95 % of control and the T/C (dose: 200.0 mg/kg/injection, schedule: Q04DX003 (ip), vehicle: saline with Tween-80) was 90 % of control.
For `COC1=C(C)C(=O)c2c(c(/C=N/NC(N)=S)c(Cl)n2C)C1=O`, the T/C (dose: 100.0 mg/kg/injection, schedule: Q01DX001 (ip), vehicle: saline with Tween-80) was 103 % of control, the T/C (dose: 200.0 mg/kg/injection, schedule: Q01DX001 (ip), vehicle: saline with Tween-80) was 93 % of control and the T/C (dose: 400.0 mg/kg/injection, schedule: Q01DX001 (ip), vehicle: saline with Tween-80) was 96 % of control.
For `COC(=O)C1Cc2[nH]cnc2C(c2c(CO)cnc(C)c2O)N1` (stereo not drawn), the T/C (dose: 50.0 mg/kg/injection, schedule: Q01DX005 (ip), vehicle: Klucel (hydroxypropylcellulose) (HPC)) was 104 % of control and the T/C (dose: 100.0 mg/kg/injection, schedule: Q01DX005 (ip), vehicle: Klucel (hydroxypropylcellulose) (HPC)) was 104 % of control.
In the case of `CC(=O)OCC(=O)[C@@]1(O)CC[C@H]2[C@@H]3C[C@H](F)C4=CC(=O)CC[C@]4(C)[C@H]3[C@@H](O)C[C@@]21C`, the T/C (dose: 100.0 mg/kg/injection, schedule: Q04DX003 (ip), vehicle: saline) is reported as 104 % of control, the T/C (dose: 200.0 mg/kg/injection, schedule: Q04DX003 (ip), vehicle: saline) is reported as 100 % of control and the T/C (dose: 400.0 mg/kg/injection, schedule: Q04DX003 (ip), vehicle: saline) is reported as 95 % of control.
With `CC(C)c1cc2c(c(O)c1O)C13CCCC(C)(C)C1CC2OC3=O` (stereo not drawn) the T/C (dose: 7.0 mg/kg/injection, schedule: Q01DX005 (ip), vehicle: saline with Tween-80) was 113 % of control, the T/C (dose: 14.0 mg/kg/injection, schedule: Q01DX005 (ip), vehicle: saline with Tween-80) was 111 % of control and the T/C (dose: 28.0 mg/kg/injection, schedule: Q01DX005 (ip), vehicle: saline with Tween-80) was 104 % of control.
For `Cc1ccc(N/N=c2\c3nc4ccccc4nc2n(-c2ccccc2C)c(=S)n3-c2ccc(C)cc2)cc1`, the T/C [5] was 93 % of control and the T/C (dose: 120.0 mg/kg/injection, schedule: Q01DX005 (ip), vehicle: saline with Tween-80) was 96 % of control.
In the case of `Cc1ccc(-n2c(CSc3ccc(Cl)cc3)nnc2SCc2nc3ccccc3[nH]2)cc1`, the T/C (dose: 15.0 mg/kg/injection, schedule: Q01DX005 (ip), vehicle: saline with Tween-80) is reported as 92 % of control, the T/C (dose: 30.0 mg/kg/injection, schedule: Q01DX005 (ip), vehicle: saline with Tween-80) is reported as 102 % of control and the T/C [5] is reported as 96 % of control and 98 % of control.
With `Cc1nn(C(=O)c2cccnc2)c(-c2ccccc2)c1N=Nc1ccc(S(=O)(=O)Nc2ncccn2)cc1` the T/C [1] was 89 % of control and the T/C [2] was 88 % of control.
